Laboratory results: paper PMC4036227 (Journal of medicinal chemistry, 2013)
Read-outs that look alike come from different tables or passages of the source.

Legend:
[1] = target: T1, S31N mutant M2 proton channel (full length AM2 protein) (Influenza A virus, UniProt P0DOF5, S31N); format: biochemical; conditions: 100 µM
A/WSN/33-N31S (WT) virus = format: cell-based
[2] = target: T1, S31N mutant M2 proton channel (full length AM2 protein); conditions: cited from earlier work

Compound	S31N % inhibition (TEVC) [1]	further results
C[C@@H]1[C@@H](/N=C/c2ccc(O)cc2)C[C@H]2C[C@@H]1C2(C)C [Compound 4]	0%	–
NC12CC3CC(CC(C3)C1)C2 [Compound 1, amantadine]	35 ± 2/ %	–
Oc1ccc(CNC23CC4CC(CC(C4)C2)C3)c(O)c1 [Compound 44, 4-(adamantan-1-ylaminomethyl)-benzene-1,3-diol]	–	inhibition of plaque formation, WT virus (A/WSN/33-N31S (WT) virus): complete inhibition
COC(=O)[C@H](Cc1cnc[nH]1)NCC12CC3CC(CC(C3)C1)C2 [Compound 3]	0%	–
pinanamine	–	S31N % inhibition (TEVC) [2]: 0%
c1ccc(CNC23CC4CC(CC(C4)C2)C3)nc1 [Compound 33]	0%	–
CC(N)C12CC3CC(CC(C3)C1)C2 (stereo not shown) [Compound 2, rimantadine]	13%	–
